This data set in a line: Thermodynamic solubility of the compound in monobasic potassium phosphate buffer at pH 7.4 after 24 hrs by LC-MS/MS analysis. The data set is classed as physicochemical. The conditions noted are these: read-out: Therm_solubility.

Molecules are shown by their SMILES. In brackets after ≈: the same amount, converted by molar mass.

For the molecule `CN(c1ccc(Cl)cc1)c1ccc(C(=O)c2ccc(C(=O)C3(c4ccccc4)CCCCC3)c(C(=O)O)c2)nc1`, the solubility thermodynamic at 24 h turned out to be 7 µM (≈ 3.87 µg/mL).

For the origin of these results see ChEMBL document CHEMBL3880387, “Bis aromatic compounds for use as LTC4 synthase inhibitors” (2013).
